molecular target: [35S]-TBPS binding, rat brain cortical membranes (GABA receptor complex); assay: Steroid inhibition of [35S]-TBPS binding; settings: 3 nM [35S]-TBPS, 5 μM GABA
Method: Steroid Inhibition of TBPS Binding
[35S]-t-Butylbicyclophosphorothionate (TBPS) binding assays using rat brain cortical membranes in the presence of 5 μM GABA has been described (Gee et al, J. Pharmacol. Exp. Ther. 1987, 241, 346-353; Hawkinson et al, Mol. Pharmacol. 1994, 46, 977-985; Lewin, A. H et al., Mol. Pharmacol. 1989, 35, 189-194).
Briefly, cortices are rapidly removed following decapitation of carbon dioxide-anesthetized Sprague-Dawley rats (200-250 g). The cortices are homogenized in 10 volumes of ice-cold 0.32 M sucrose using a glass/teflon homogenizer and centrifuged at 1500×g for 10 min at 4° C. The resultant supernatants are centrifuged at 10,000×g for 20 min at 4° C. to obtain the P2 pellets. The P2 pellets are resuspended in 200 mM NaCl/50 mM Na-K phosphate pH 7.4 buffer and centrifuged at 10,000×g for 10 min at 4° C. This washing procedure is repeated twice and the pellets are resuspended in 10 volumes of buffer. Aliquots (100 μL) of the membrane suspensions are incubated with 3 nM [^35S]-TBPS and 5 μL aliquots of test drug dissolved in dimethyl sulfoxide (DMSO) (final 0.5%) in the presence of 5 μM GABA. The incubation is brought to a final volume of 1.0 mL with buffer. Nonspecific binding is determined in the presence of 2 μM unlabeled TBPS and ranged from 15 to 25%. Following a 90 min incubation at room temp, the assays are terminated by filtration through glass fiber filters (Schleicher and Schuell No. 32) using a cell harvester (Brandel) and rinsed three times with ice-cold buffer. Filter bound radioactivity is measured by liquid scintillation spectrometry. Non-linear curve fitting of the overall data for each drug averaged for each concentration is done using Prism (GraphPad). […] The concentration of test compound producing 50% inhibition (IC50) of specific binding and the maximal extent of inhibition (Imax) are determined for the individual experiments with the same model used for the overall data and then the means±SEM.s of the individual experiments are calculated.
Various compounds are or can be screened to determine their potential as modulators of [^35S]-TBPS binding in vitro. These assays are or can be performed in accordance with the above discussed procedures.

| SMILES | IC50 [nM] |
| --- | --- |
| CO[C@H]1C[C@H]2[C@@H](CC[C@@H]3[C@@H]2CC[C@]2(C)[C@@H](C(=O)Cn4cccn4)CC[C@@H]32)C[C@]1(C)O [SB-19] | 100 to 500 |
| Cc1cc(C)n(CC(=O)[C@H]2CC[C@H]3[C@@H]4CC[C@@H]5C[C@](C)(O)CC[C@@H]5[C@H]4CC[C@]23C)n1 [SA-12] | 10 to 50 |
| C[C@]12CC[C@H]3[C@@H](CC[C@H]4C[C@@](O)(CF)CC[C@@H]43)[C@@H]1CC[C@@H]2C(=O)Cn1cc(C#N)cn1 [SB-22] | 100 to 500 |
| C[C@@]1(O)CC[C@H]2[C@@H](CC[C@@H]3[C@@H]2CC[C@]2(C)[C@@H](C(=O)Cn4cc(S(C)(=O)=O)cn4)CC[C@@H]32)C1 [SB-3] | ≥ 500 |
| COC[C@@]1(O)CC[C@H]2[C@@H](CC[C@@H]3[C@@H]2CC[C@]2(C)[C@@H](C(=O)Cn4cc(S(C)(=O)=O)cn4)CC[C@@H]32)C1 [SB-7] | ≥ 500 |
| CCOC[C@@]1(O)CC[C@H]2[C@@H](CC[C@@H]3[C@@H]2CC[C@]2(C)[C@@H](C(=O)Cn4cccn4)CC[C@@H]32)C1 [SB-8] | ≥ 500 |
| C[C@]12CC[C@H]3[C@@H](CC[C@@H]4C[C@@](O)(C(F)F)CC[C@@H]43)[C@@H]1CC[C@@H]2C(=O)Cn1cc(S(C)(=O)=O)cn1 [SA-29] | ≥ 500 |
| C[C@]12CC[C@H]3[C@@H](CC[C@@H]4C[C@@](O)(CF)CC[C@@H]43)[C@@H]1CC[C@@H]2C(=O)Cn1cc(S(C)(=O)=O)cn1 [SA-33] | ≥ 500 |
| C[C@@]1(O)CC[C@@H]2[C@H]3CC[C@]4(C)[C@@H](C(=O)Cn5cccn5)CC[C@H]4[C@@H]3C[C@@H](F)[C@@H]2C1 [SA-25] | ≥ 500 |
| CC[C@@]1(O)CC[C@H]2[C@@H](CC[C@@H]3[C@@H]2CC[C@]2(C)[C@@H](C(=O)Cn4cccn4)CC[C@@H]32)C1 [SB-20] | ≥ 500 |

molecular target: T1, GABAA receptor α1β2γ2 (Homo sapiens, UniProt P14867+P47870); assay: Patch clamp electrophysiology, Qpatch in Ltk cells; type: cell-based; settings: 10 μM test article, GABA EC20 2 μM, read-out: GABA (α1β2γ2) Qpatch in Ltk, % efficacy at 10 μM
T1 construct: expressed in transfected cells
Method: Patch Clamp Electrophysiology of Recombinant α1β2γ2 and α4β3δ GABAA Receptors
Cellular electrophysiology is used to measure the pharmacological properties of our GABAA receptor modulators in heterologous cell systems. Each compound is tested for its ability to affect GABA mediated currents at a submaximal agonist dose (GABA EC20=2 μM). LTK cells are stably transfected with the α1β2γ2 subunits of the GABA receptor and CHO cells are transiently transfected with the α4β3δ subunits via the Lipofecatamine method. Cells were passaged at a confluence of about 50-80% and then seeded onto 35 mm sterile culture dishes containing 2 ml culture complete medium without antibiotics or antimycotics. Confluent clusters of cells are electrically coupled (Pritchett et al., Science, 1988, 242, 1306-1308.). Because responses in distant cells are not adequately voltage clamped and because of uncertainties about the extent of coupling (Verdoorn et al., Neuron 1990, 4, 919-928.), cells were cultivated at a density that enables the recording of single cells (without visible connections to other cells).
Whole cell currents were measured with HEKA EPC-10 amplifiers using PatchMaster software or by using the high throughput QPatch platform (Sophion). Bath solution for all experiments contained (in mM): NaCl 137 mM, KCl 4 mM, CaCl2 1.8 mM, MgCl2 1 mM, HEPES 10 mM, D-Glucose 10 mM, pH (NaOH) 7.4. In some cases 0.005% cremophor was also added. Intracellular (pipette) solution contained: KCl 130 mM, MgCl2 1 mM, Mg-ATP 5 mM, HEPES 10 mM, EGTA 5 mM, pH 7.2. During experiments, cells and solutions were maintained at room temperature (19° C.-30° C.). For manual patch clamp recordings, cell culture dishes were placed on the dish holder of the microscope and continuously perfused (1 ml/min) with bath solution. After formation of a Gigaohm seal between the patch electrodes and the cell (pipette resistance range: 2.5 MΩ-6.0 MΩ; seal resistance range: >1 GΩ) the cell membrane across the pipette tip was ruptured to assure electrical access to the cell interior (whole-cell patch-configuration). For experiments using the QPatch system, cells were transferred as suspension to the QPatch system in the bath solution and automated whole cell recordings were performed.
Cells were voltage clamped at a holding potential of −80 mV. For the analysis of test articles, GABA receptors were stimulated by 2 μM GABA after sequential pre-incubation of increasing concentrations of the test article. Pre-incubation duration was 30 s and the duration of the GABA stimulus was 2 s. Test articles were dissolved in DMSO to form stock solutions (10 mM). Test articles were diluted to 0.01, 0.1, 1, and 10 μM in bath solution. All concentrations of test articles were tested on each cell. The relative percentage potentiation was defined as the peak amplitude in response to GABA EC20 in the presence of the test article divided by the peak amplitude in response to GABA EC20 alone, multiplied by 100.

T1 sequence (P14867 28-456): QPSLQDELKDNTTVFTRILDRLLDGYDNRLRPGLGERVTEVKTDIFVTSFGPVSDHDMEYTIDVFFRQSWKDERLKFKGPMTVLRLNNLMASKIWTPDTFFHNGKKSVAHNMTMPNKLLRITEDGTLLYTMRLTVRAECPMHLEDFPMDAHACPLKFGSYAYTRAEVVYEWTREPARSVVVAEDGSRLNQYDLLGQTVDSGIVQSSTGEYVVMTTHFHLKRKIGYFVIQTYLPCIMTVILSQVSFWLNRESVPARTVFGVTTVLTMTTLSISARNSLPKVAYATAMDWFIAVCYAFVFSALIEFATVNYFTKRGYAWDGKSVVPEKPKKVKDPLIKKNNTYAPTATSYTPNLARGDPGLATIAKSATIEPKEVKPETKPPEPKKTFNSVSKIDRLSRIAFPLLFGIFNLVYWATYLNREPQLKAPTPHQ
T1 sequence (P47870 25-512 limits assumed): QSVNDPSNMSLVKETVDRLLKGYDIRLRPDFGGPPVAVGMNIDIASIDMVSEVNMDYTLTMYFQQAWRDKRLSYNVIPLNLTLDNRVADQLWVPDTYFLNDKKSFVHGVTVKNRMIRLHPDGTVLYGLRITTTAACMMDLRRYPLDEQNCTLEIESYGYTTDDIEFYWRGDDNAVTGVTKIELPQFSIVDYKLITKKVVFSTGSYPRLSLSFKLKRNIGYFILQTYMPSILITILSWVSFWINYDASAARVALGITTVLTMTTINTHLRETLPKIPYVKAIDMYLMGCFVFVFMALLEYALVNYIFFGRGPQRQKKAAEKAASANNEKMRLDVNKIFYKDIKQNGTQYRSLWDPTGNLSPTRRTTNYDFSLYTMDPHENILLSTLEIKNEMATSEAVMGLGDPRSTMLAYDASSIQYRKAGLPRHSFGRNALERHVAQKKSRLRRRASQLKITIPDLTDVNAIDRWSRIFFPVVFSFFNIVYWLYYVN
T1 sequence (P18507 40-475 partner): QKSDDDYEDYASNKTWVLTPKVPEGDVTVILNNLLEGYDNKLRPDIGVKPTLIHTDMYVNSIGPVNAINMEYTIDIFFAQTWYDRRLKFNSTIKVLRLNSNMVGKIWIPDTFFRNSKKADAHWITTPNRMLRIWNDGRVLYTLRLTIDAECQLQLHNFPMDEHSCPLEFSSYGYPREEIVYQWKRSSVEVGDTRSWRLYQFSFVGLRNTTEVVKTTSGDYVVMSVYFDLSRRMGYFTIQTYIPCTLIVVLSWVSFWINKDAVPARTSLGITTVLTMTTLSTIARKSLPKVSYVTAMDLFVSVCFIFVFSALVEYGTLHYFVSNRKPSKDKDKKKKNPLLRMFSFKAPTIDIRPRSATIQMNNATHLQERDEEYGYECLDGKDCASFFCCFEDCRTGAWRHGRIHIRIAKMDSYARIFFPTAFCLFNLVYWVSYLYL

| SMILES | Emax at 10 µM [%] |
| --- | --- |
| C[C@@]1(O)CC[C@@H]2[C@H]3CC[C@]4(C)[C@@H](C(=O)Cn5ccc(C#N)n5)CC[C@H]4[C@@H]3C[C@@H](F)[C@H]2C1 [SB-13] | 100 to 500 |
| CO[C@H]1C[C@H]2[C@@H](CC[C@@H]3[C@@H]2CC[C@]2(C)[C@@H](C(=O)Cn4cccn4)CC[C@@H]32)C[C@]1(C)O [SB-19] | > 500 |
| Cc1cc(C)n(CC(=O)[C@H]2CC[C@H]3[C@@H]4CC[C@@H]5C[C@](C)(O)CC[C@@H]5[C@H]4CC[C@]23C)n1 [SA-12] | 100 to 500 |
| C[C@]12CC[C@H]3[C@@H](CC[C@H]4C[C@@](O)(CF)CC[C@@H]43)[C@@H]1CC[C@@H]2C(=O)Cn1cc(C#N)cn1 [SB-22] | > 500 |
| CSc1cnn(CC(=O)[C@H]2CC[C@H]3[C@@H]4C[C@@H](F)[C@H]5C[C@](C)(O)CC[C@@H]5[C@H]4CC[C@]23C)c1 [SB-14] | 100 to 500 |
| Cc1cn(CC(=O)[C@H]2CC[C@H]3[C@@H]4CC[C@@H]5C[C@](C)(O)CC[C@@H]5[C@H]4CC[C@]23C)nc1C [SA-15] | 100 to 500 |
| CSc1cnn(CC(=O)[C@H]2CC[C@H]3[C@@H]4CC[C@@H]5C[C@](C)(O)CC[C@@H]5[C@H]4CC[C@]23C)c1 [SA-18] | > 500 |
| CC[C@@]1(O)CC[C@H]2[C@@H](CC[C@@H]3[C@@H]2CC[C@]2(C)[C@@H](C(=O)Cn4cc(C#N)cn4)CC[C@@H]32)C1 [SB-21] | 100 to 500 |
| Cc1cnn(CC(=O)[C@H]2CC[C@H]3[C@@H]4C[C@@H](F)[C@H]5C[C@](C)(O)CC[C@@H]5[C@H]4CC[C@]23C)c1 [SB-12] | 100 to 500 |
| C[C@@]1(O)CC[C@H]2[C@H](CC[C@@H]3[C@@H]2CC[C@]2(C)[C@@H](C(=O)Cn4cc(C(F)(F)F)cn4)CC[C@@H]32)C1 [SA-14] | 100 to 500 |
| C[S+]([O-])c1cnn(CC(=O)[C@H]2CC[C@H]3[C@@H]4CC[C@@H]5C[C@](C)(O)CC[C@@H]5[C@H]4CC[C@]23C)c1 (some centres unmarked) [SA-20] | 100 to 500 |
| C[C@]12CC[C@H]3[C@@H](CC[C@@H]4C[C@@](O)(C(F)F)CC[C@@H]43)[C@@H]1CC[C@@H]2C(=O)Cn1cc(C#N)cn1 [SA-28] | > 500 |
| CCc1cnn(CC(=O)[C@H]2CC[C@H]3[C@@H]4CC[C@@H]5C[C@](C)(O)CC[C@@H]5[C@H]4CC[C@]23C)c1 [SA-16] | > 500 |
| CCOC[C@@]1(O)CC[C@H]2[C@@H](CC[C@@H]3[C@@H]2CC[C@]2(C)[C@@H](C(=O)Cn4cc(C#N)cn4)CC[C@@H]32)C1 [SB-9] | 100 to 500 |
| CC[C@@]1(O)CC[C@H]2[C@H](CC[C@@H]3[C@@H]2CC[C@]2(C)[C@@H](C(=O)Cn4cc(C#N)cn4)CC[C@@H]32)C1 [SA-30] | 100 to 500 |
| C[C@@]1(O)CC[C@H]2[C@H](CC[C@@H]3[C@@H]2CC[C@]2(C)[C@@H](C(=O)Cn4cc(F)cn4)CC[C@@H]32)C1 [SA-21] | > 500 |

Source: patent US12201640B2, “19-nor C3,3-disubstituted C21-n-pyrazolyl steroids and methods of use thereof” (Sage Therapeutics, Inc., priority 2013, dated 2025)
